Measurements: patent US7820624B2, “Peptide ligands” (ICH Productions Limited, priority 2003, dated 2010)

Assays:
[1] = test system: human monocyte-derived immature dendritic cells; format: cell-based; conditions: 100,000 viral particles/cell
Text: Ad5 particles with the DC-binding peptides incorporated into the HI loop of the fibre protein were produced essentially as described previously ^12. Complementary oligonucleotides encoding the peptide sequences SHVKLNS [SEQ. ID. NO.:29] (5′ CC GGAAGCCACGTGAAGCTGAACAGCG 3′ [SEQ. ID. NO.:58] and 5′ CC GGCGCTGTTCAGCTTCACGTG GCTT 3′[SEQ. ID. NO.:59]) or APSNSTA [SEQ. ID. NO.:15] (5′ CC GGAGCCCCCAGCAACAGCACCGCCG 3′ [SEQ. ID. NO.:61] and 5′ CC GGCGGCGGTGCTGTTGCTGGG GGCT 3′ [SEQ. ID. NO.:62]) were synthesized (Operon Technologies, Alameda Calif. U.S.A.). The oligo pairs were then kinased, annealed, and ligated into the unique BspE1 site of pDV137 ^12, an expression construct encoding an Ad5 fibre protein with a double point mutant (KO1) which blocks CAR binding and a linker/restriction site in the HI loop, to create pDV178 (SHVKLNS) and pDV179 (APSNSTA). Following sequence confirmation, the plasmids were used to trans-complement the fibre-deleted vector Ad5.GFP.δF^18 by transient transfection into 293 cells as described ^19. Viral particles were purified by freeze/thaw lysis and CsCl gradient centrifugation and dialyzed into 40 mM TRIS-pH 8.1/0.9% NaCl/10% glycerol and stored at −80° C. Virus was quantified by protein assay (BioRad, Hercules Calif., U.S.A.) against BSA standards and using the relation 1 μg viral protein=4×10^9 viral particles.
Retargeted adenoviruses carrying a peptide A or B were used for the transduction experiments described below. Wild type adenovirus type 5 and type 5 adenovirus having a KO1 fibre, all supplied by Dr Dan von Seggern, and as described in Nicklin 2001 Mol Ther 2001 Dec.; 4(6):534-42), were used as controls.
(§1) Day 6 dendritic cells (see Example 1(v) above), or mouse bone marrow derived dendritic cells or mouse Sca1+ve stem cells, see (i) and (ii) above, were plated at 5×10^4 cells per well in a 48 well plate in 500 μl complete medium and allowed to settle for 3 hours at 37° C. Transductions were carried out in complete media, with virus being added at 100,000 viral particles/cell for 24 hours. Cells were harvested by scraping, spun down at 650 g (2000 rpm) for 5 min, resuspended in 300 μl PBS, and kept on ice before analysis. Viral transduction as determined by percentage of GFP positive cells was measured by FACS analysis. To measure percentage viability, 10 μl of 7-amino-actinomycin D (7AAD; Sigma, Poole, Dorset) was added immediately prior to analysis. Viral transduction of macrophages was carried out at 10,000 particles/cell in medium containing 2.5% FCS. For other cell types, cells were seeded overnight at 5×10^4 cells per well in 24-well plates in the appropriate media. Adenovirus was added in OptiMEM at 10,000 viral particles/cell, 1 ml per well in triplicate and incubated for 24 h at 37° C. Cells were then washed twice in PBS, trypsinised, triplicate wells pooled, spun down at 350×g for 5 min and resuspended in 300 μl PBS before analysis by flow cytometry where cell viability was to be measured, 10 μl 7AAD was added just prior to analysis.
Cells were pooled from three separate transduction experiments for the calculation of results.

[2] = test system: human monocyte-derived primary macrophages; test: Adenoviral transduction of primary macrophages; format: cell-based; conditions: 10,000 viral particles/cell in 2.5% serum
Procedure: as §1
10 mls of peripheral blood were diluted 1:1 with HBSS then layered on Lymphoprep (Nycomed), spun at 750 g for 30 min and purified […] were isolated from the interface. Excess Lymphoprep was removed by spinning cells down at 250 g for 10 min and any platelets present were removed by washing in HBSS twice, spinning the cells at 1200 rpm for 10 min each time. Monocytes were then isolated using MACs CD14 microbeads as described in the manufacturer's protocol. The mononuclear cells were plated into a […] flask in 10% FCS, RPMI for 1-2 hours (1 flask per 10 ml blood) before removing the supernatant and adding fresh 10% FCS, RPMI+10 ng/ml MCSF (macrophage colony stimulating factor). Half the medium was replaced with fresh 10% FCS, RPMI+MCSF (10 ng/ml) after 48 hours and the cells were used at day 6, harvesting by scraping the cells from the well.
Viral transduction was carried out at 10,000 particles/cell in medium containing 2.5% FCS. Viral transduction as determined by percentage of GFP positive cells was measured by FACS analysis. Cells were pooled from three separate transduction experiments for the calculation of results.

[3] = test system: 1HAEo- cells; test: Adenoviral transduction of 1HAEo- cells; format: cell-based, human; conditions: 10,000 particles per cell in OptiMEM
Procedure: as §1, with “For other cell types, cells were seeded overnight at 5×10^4 cells per well in 24-well plates in the appropriate media. Adenovirus was added in OptiMEM at 10,000 viral particles/cell, 1 ml per well in triplicate and incubated for 24 h at 37° C.” left out
(§2) For transduction of these other cell types, cells were seeded overnight at 5×10^4 cells per well in 24 well plates in the appropriate media. […] Where cell viability was to be measured, 10 μl 7-amino-actinomycin D (7AAD; Sigma, Poole, Dorset) was added just prior to analysis. […]

[4] = test system: HMEC-1 cells; test: Adenoviral transduction of HMEC-1 cells; format: cell-based, human; conditions: 10,000 particles per cell in OptiMEM
Procedure: as §1, with “For other cell types, cells were seeded overnight at 5×10^4 cells per well in 24-well plates in the appropriate media. Adenovirus was added in OptiMEM at 10,000 viral particles/cell, 1 ml per well in triplicate and incubated for 24 h at 37° C.” left out
as §2

[5] = test system: HepG2 cells; test: Adenoviral transduction of HepG2 cells; format: cell-based, human; conditions: 10,000 particles per cell in OptiMEM
Procedure: as §1, with “For other cell types, cells were seeded overnight at 5×10^4 cells per well in 24-well plates in the appropriate media. Adenovirus was added in OptiMEM at 10,000 viral particles/cell, 1 ml per well in triplicate and incubated for 24 h at 37° C.” left out
as §2

[6] = test system: primary mouse dendritic cells; test: Adenoviral transduction of mouse dendritic cells; format: cell-based; conditions: bone marrow derived DCs
Procedure: Mouse dendritic cells were prepared from whole bone marrow flushed from the marrow cavities of the femur and tibia of 5-7 week old A/J mice and cultured in Hepes buffered RPMI+Glutamax (InVitrogen, Paisley, U. K.) supplemented with 10% FCS, penicillin/streptomycin and 20 ng/ml recombinant GM-CSF. Cytokines were added to the same concentration on day 3 and the dendritic cells isolated from the floating cell fraction by MACs CD11c microbeads (Miltenyi Biotec, Bisley, U. K.) on day 6.
as §1, with “To measure percentage viability, 10 μl of 7-amino-actinomycin D (7AAD; Sigma, Poole, Dorset) was added immediately prior to analysis. Viral transduction of macrophages was carried out at 10,000 particles/cell in medium containing 2.5% FCS. For other cell types, cells were seeded overnight at 5×10^4 cells per well in 24-well plates in the appropriate media. Adenovirus was added in OptiMEM at 10,000 viral particles/cell, 1 ml per well in triplicate and incubated for 24 h at 37° C.” left out

[7] = test system: mouse Sca1-positive stem cells; test: Adenoviral transduction of mouse Sca1+ve stem cells; format: cell-based
Procedure: Mouse bone marrow cells were isolated as above and Sca1+ve cells were isolated using MACs Sca1 microbeads (Miltenyi Biotec, Bisley, U.K.). These cells were plated at 7×10^4 cells/500 μl in RPMI with Glutamax-1 containing 30% FCS and penicillin/streptomycin and the following cytokines murine SCF (50 ng/ml; Preprotech, London, UK), IL-6 (20 ng/ml; Preprotech, London, UK) and Flt3-L (10 ng/ml) (R&D Systems, Oxford, U. K.).
as §1, with “To measure percentage viability, 10 μl of 7-amino-actinomycin D (7AAD; Sigma, Poole, Dorset) was added immediately prior to analysis. Viral transduction of macrophages was carried out at 10,000 particles/cell in medium containing 2.5% FCS. For other cell types, cells were seeded overnight at 5×10^4 cells per well in 24-well plates in the appropriate media. Adenovirus was added in OptiMEM at 10,000 viral particles/cell, 1 ml per well in triplicate and incubated for 24 h at 37° C.” left out

[8] = test system: Neuro-2A cells; test: Adenoviral transduction of Neuro-2A cells; format: cell-based, mouse; conditions: 10,000 particles per cell in OptiMEM
Procedure: as §1, with “For other cell types, cells were seeded overnight at 5×10^4 cells per well in 24-well plates in the appropriate media. Adenovirus was added in OptiMEM at 10,000 viral particles/cell, 1 ml per well in triplicate and incubated for 24 h at 37° C.” left out
as §2

[9] = test system: day 6 immature dendritic cells; test: Maturation of adenovirus-transduced dendritic cells in response to LPS (marker flow cytometry); format: cell-based, human; conditions: LPS 50 ng/ml; virus 100,000 particles per cell
Procedure: Day 6 immature dendritic cells were infected with retargeted Ad or Ad5 at 100,000 particles per cell in complete medium for 24 hours, with E. coli 026:B6 lipopolysaccharide (LPS) added following 3 hours incubation at a concentration of 50 ng/ml. As controls, dendritic cells were either incubated in complete medium for 24 hours or matured by the addition of LPS in complete medium for 24 hours, In all samples IL-4 and GM-CSF were present in the complete medium at 25 ng/ml and 100 ng/ml respectively. Cells were then phenotyped by staining as follows: a minimum of 5×10^4 cells in a volume of less than 2 ml medium were added to the recommended amount of antibody and incubated for 20 min on ice. 2 ml of ice-cold PBS was added before centrifugation at 300×g for 5 min at 4° C. The supernatant was flicked off and the pellet resuspended in 300 μl ice cold PBS. Cells from each sample were stained with antibodies to HLA-DR, CD40, CD80, CD83, CD86 and isotype matched control antibodies. Where cell viability was also measured, […] of 7AAD was added immediately prior to analysis. Cells were analysed by flow cytometry using a Epics XL (Beckman Coulter, High Wycombe, UK.) and the EXPO32 analysis software (Beckman Coulter).

APSNSTA (Synthetic peptide binding to dendritic cells)
Transduction (% GFP positive cells), donor A ([1]; complete medium, 24 hours, donor A): 65.1%
Transduction (% GFP positive cells), donor B ([1]; complete medium, 24 hours, donor B): 78.9%
Percentage cell death, donor A ([1]; donor A, 7AAD): (6.6) %
Percentage cell death, donor B ([1]; donor B, 7AAD): (11.6) %
Transduction, % cells transduced [2]: 34.6%
Transduction, % cells transduced ([2]; listed as B): 34.6%
Transduction, % cells transduced [3]: 79%
Transduction, % cells transduced [4]: 94.2%
Transduction, % cells transduced [5]: 79.7%
Transduction efficiency [6]: 54.1%
Transduction efficiency [7]: 5.4%
Transduction, % GFP-positive cells [8]: 53.7%
CD40 positive cells [9]: 9.8%
CD80 positive cells [9]: 10.7%
CD83 positive cells [9]: 18.0%
CD86 positive cells [9]: 96.7%
HLA-DR positive cells [9]: 72.9%
